Laboratory results from article PMC12202571, “Reversal of ABCG2-mediated drug resistance by tinodasertib (ETC-206)” (Frontiers in Pharmacology, 2025).

Experiments:
ABCG2 [1] = biological target: T1, ABCG2 (Homo sapiens, UniProt Q9UNQ0)
T1 sequence (Q9UNQ0 1-655): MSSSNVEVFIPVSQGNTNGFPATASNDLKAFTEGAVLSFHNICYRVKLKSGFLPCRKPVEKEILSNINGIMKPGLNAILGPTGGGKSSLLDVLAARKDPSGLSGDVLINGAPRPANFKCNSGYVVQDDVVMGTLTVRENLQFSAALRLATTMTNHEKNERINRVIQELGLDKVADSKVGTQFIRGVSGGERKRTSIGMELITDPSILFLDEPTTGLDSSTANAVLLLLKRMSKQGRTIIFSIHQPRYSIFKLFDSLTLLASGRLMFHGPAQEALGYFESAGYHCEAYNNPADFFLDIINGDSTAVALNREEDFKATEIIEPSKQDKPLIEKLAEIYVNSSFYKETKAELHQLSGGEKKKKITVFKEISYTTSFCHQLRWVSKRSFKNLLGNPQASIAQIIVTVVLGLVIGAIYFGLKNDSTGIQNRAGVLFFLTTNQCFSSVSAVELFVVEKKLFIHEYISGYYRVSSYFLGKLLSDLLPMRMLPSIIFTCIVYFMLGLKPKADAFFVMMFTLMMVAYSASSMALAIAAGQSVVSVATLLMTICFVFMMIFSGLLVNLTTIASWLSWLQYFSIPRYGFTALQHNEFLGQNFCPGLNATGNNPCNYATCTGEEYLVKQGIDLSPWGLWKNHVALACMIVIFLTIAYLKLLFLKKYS

ABCG2 [2] = biological target: T2, ABCG2 (Homo sapiens, UniProt Q9UNQ0); test: vanadate-sensitive ATPase assay in ABCG2 membrane vesicles (colorimetric phosphate); supported by [3H]-mitoxantrone efflux inhibition in cells; format: biochemical
T2 construct: ABCG2-containing membrane vesicles

Row | SMILES | [3H]-mitoxantrone accumulation and efflux in ABCG2-overexpressing versus parenta (ABCG2 [1]) | IC50 (ABCG2 [2])
1 | O=C1c2c(O)ccc(O)c2C(=O)c2c(NCCNCCO)ccc(NCCNCCO)c21 [mitoxantrone] | Efflux assays demonstrated a substantial reduction in [^3H]-mitoxantrone efflux from ABCG2-overexpressing cells | –
2 | N#Cc1ccc(-c2cnc3ccc(-c4ccc(C(=O)N5CCOCC5)cc4)cn23)cc1 [tinodasertib] | – | ~2000 nM
